Entries after “also recorded” stand apart in the source; their conditions may differ.
Columns and labels:
[1] = tested on: primary AML specimens; assay: colony forming assay in methyl cellulose, primary AML specimens; format: cell-based, human; conditions: Flt3 mutant versus Flt3 wildtype specimens, drug alone
Description: (§1) FIG. 1 is a table summarizing the results of colony forming assays in methyl cellulose for primary AML specimens (purchased from the BLCQ) or specimens isolated from healthy volunteers (purchased from Stem Cell Technologies). A colony experiment typically runs for 14 days. A special media which supports hematopoietic cell growth was used (Methocult purchased from Stem Cell Technologies). Mutant refers to the presence of a mutation in the Flt3 gene (a common leukemia marker) and wildtype refers to Flt3 not being mutated in this specimen. Each experiment is carried out in quintuplicate with colony number plus/minus standard deviations given. […] Untreated controls were carried out in parallel for every single experiment. Experiments were done on specimens as described.

[2] = tested on: M1 AML specimen with elevated eIF4E (M1-high4E); assay: methyl-cellulose colony assay, M1 AML specimen with elevated eIF4E; format: cell-based, human; conditions: ribavirin 1 micromolar, azacytidine 3 micromolar
Description: as §1

[3] = tested on: KG-1a cells; assay: western blot of eIF4E targets, apoptosis and autophagy markers in KG-1a cells; format: cell-based, human; conditions: for Akt activation / LC3B level and cleavage (autophagy marker) / levels of eIF4E downstream targets XIAP, Mdm2, Mcl-1: KG1 cells; for levels of eIF4E downstream targets XIAP, Mdm2, Mcl-1: ribavirin 10 μM, azacytidine 3 μM
[4] = tested on: THP-1 cells; assay: western blot of eIF4E targets, apoptosis and autophagy markers in THP-1 cells; format: cell-based, human; conditions: for HoxA9 protein levels: FIG. 7
[5] = tested on: M1 and M2 AML specimens (with normal eIF4E levels); assay: methyl-cellulose colony assay, M1 and M2 AML specimens with normal eIF4E; format: cell-based, human; conditions: ribavirin 1 micromolar
Description: as §1

[6] = biological target: T1, eIF4E (Homo sapiens, UniProt P06730); assay: 3H ribavirin immunoprecipitation with eIF4E antibodies in FaDu cells; format: binding; conditions: 24 h, 0.66 micromolar 3H ribavirin, formaldehyde cross-linked
T1 construct: endogenous in cells; host or cells: FaDu cells
Description: Equal amounts of lysate were used for immunoprecipitation with antibodies to eIF4E or IgG controls. After 6 washes (W), beads were eluted in SDS Buffer. ⅕ of volume was used for western blot analysis and the rest for ^3H measurement. […] Input is a positive control showing that eIF4E is present in the cell lysate.
FIG. 3 is a western blot control for FIG. 2. This western blot confirms that antibodies to eIF4E immunoprecipitated eIF4E and that eIF4E was not found in the IgG control immunoprecipitation.

[7] = tested on: acute myeloid leukemia (AML); assay: phase II clinical trial of ribavirin monotherapy in leukemia (AML) patients, NCT00559091; format: in vivo, human
Description: Thus, because of its properties, the eukaryotic translation initiation factor, eIF4E, has become an appealing clinical target to treat patients diagnosed with cancer, in particular AML. […] 114, no. 2 (Jul. 9, 2009, Epub 2009 May 11).
In conducting clinical trial no. […] In some patients, monotherapy had no impact. […] In fact, leukemic cells become resistant to nearly all monotherapies within two (2) to four (4) months; such being due to naturally occurring phenomena such as selective evolution (Abboud et al., “Induction therapy for elderly patients with acute myeloid leukemia”, Blood Reviews (2008) 22: 311-320, and Melnick et al., “MDS and secondary AML display unique patterns and abundance of aberrant DNA methylation”, Blood. 2009 Oct. 15; 114(16):3448-58. Epub 2009 Aug. 3). To overcome this issue of resistance, it is not uncommon in the clinical field, and as for most treatments involving a monotherapy, to follow-up this treatment with chemotherapy, as it taught in Abboud et al. (supra) and Melnick et al. (supra). As it is well known, the use of chemotherapeutic agents has many secondary effects on patients, including and not limited to damage of normal cells, anemia, bleeding, constipation, fatigue, hair loss, infections, memory changes, swelling, and even death amongst many others. Conventional chemotherapy also requires a stay at the hospital so as to administer the chemotherapeutic agent(s) as well as supportive care for the side effects. In this connection, Abboud et al., in Blood Reviews (2008, supra), review treatment strategies of patients over 60 (which are the majority of AML patients), diagnosed with AML, and the morbidities and mortalities associated with chemotherapy.
Ribavirin was used extensively as a broad-spectrum anti-viral therapy.

[8] = biological target: purified eIF4E; conditions: cited from earlier work
[9] = Assouline et al, Blood 2009; cited from earlier work

T1 sequence (P06730 whole entry): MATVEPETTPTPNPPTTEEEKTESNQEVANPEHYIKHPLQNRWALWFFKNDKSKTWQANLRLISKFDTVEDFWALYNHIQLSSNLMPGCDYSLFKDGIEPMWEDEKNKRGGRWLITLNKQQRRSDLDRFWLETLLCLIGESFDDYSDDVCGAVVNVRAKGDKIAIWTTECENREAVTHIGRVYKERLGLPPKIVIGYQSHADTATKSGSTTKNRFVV

For Nc1ncn([C@@H]2O[C@H](CO)[C@@H](O)[C@H]2O)c(=O)n1 [azacytidine, 4-amino-1-β-D-ribofuranosyl-1,3,5-triazin-2(1H)-one], the “dependence of the effect on colony growth on Flt3 status” value [1] was “independent of Flt3 status”, the “colonies versus untreated controls” value [2] was “about 80%” and the “levels of NFkappaB subunit p65” value ([3]; FIG. 6) was “elevated”. The Akt activation [3] was “leads to Akt activation”, the “LC3B level and cleavage (autophagy marker)” value [3] was “increases the total amount of LC3B protein” and the “levels of eIF4E downstream targets XIAP, Mdm2, Mcl-1” value [3] was “gross increase; also recorded: upregulated”. The HoxA9 protein levels [4] was “elevates” and the “levels of eIF4E downstream targets XIAP, mdm2, Mcl-1” value ([4]; THP-1 cells) was “upregulated; also recorded: elevated”.
With NC(=O)c1ncn([C@@H]2O[C@H](CO)[C@@H](O)[C@H]2O)n1 [ribavirin, 1-[(2R,3R,4S,5R)-3,4-dihydroxy-5-(hydroxymethyl)oxolan-2-yl]-1H-1,2,4-triazole-3-carboxamide] the “dependence of the effect on colony growth on Flt3 status” value [1] was “independent of Flt3 status”, the “colonies versus untreated cells” value [5] was 70-80% and the “drop in colonies versus untreated cells” value [5] was about 25%. For the same molecule, the “binding of 3H ribavirin to eIF4E in living cells” value [6] was “binds directly to eIF4E in living cells; also recorded: eIF4E binds ^3H ribavirin”, the Akt activation [3] was “reduces Akt activation” and the “LC3B level and cleavage (autophagy marker)” value [3] was “elevated LC3B levels”. For the same molecule, the “levels of eIF4E downstream targets XIAP, Mdm2, Mcl-1” value [3] was “reduced the expression”, the eIF4E protein levels ([3]; KG-1a and THP-1 cells, ribavirin 48 hours) was “do not change” and the “mdm2 protein level (eIF4E mRNA export target)” value ([3]; KG-1a cells, 48 hours) was “downregulated”. The HoxA9 protein levels [4] was “does not reverse this”, the “mdm2 protein level (eIF4E mRNA export target)” value ([4]; THP-1 cells, 48 hours) was “downregulated” and the “clinical response of patients” value ([7]; Canada-wide clinical trial) was “striking improvement”. The “resistance to monotherapy in patients” value ([7]; clinical trial no. NCT00559091) was “most if not all patients became resistant; also recorded: all eventually developed resistance”, the “eIF4E protein (and RNA) levels in patients” value ([7]; phase II clinical trial, ribavirin monotherapy) was “downregulation” and the Kd ([8]; Kentsis 2004, read-out: affinity constant for eIF4E) was about 1 µM. For the same molecule, the “Kd for purified eIF4E in vitro” value ([8]; Kentsis et al. 2004) was “low micromolar range” and the “concentration in plasma from patients” value [9] was 10 to 20 µM.
